{"source": "patent US11607422B2", "about": "“Uttroside B and derivatives thereof as therapeutics for hepatocellular carcinoma” (Rajiv Gandhi Centre for Biotechnology, an Autonomous …, priority 2016, dated 2023)", "key": {"[1]": {"system": "autophagy related proteins in HepG2 cells", "experiment": "Western blot of autophagy related proteins in HepG2 cells", "type": "cell-based, human", "details": "time dependent", "experimental": "Western blot analysis. Approximately 0.5×10^6 cells were grown on 60 mm culture plates and exposed to drugs as indicated for the desired time. The cells were then scraped out, washed in ice cold 1× PBS and pelleted down at 13000 rpm for 2 min. The pelleted cells were suspended in 150 μL of ice-cold whole cell lysis buffer[(20 mMTris of pH 7.4, 250 mM NaCl, 2 mM EDTA, 0.1% Triton, 1 mM DTT (1,4-dithiothreitol), 0.5 mM PMSF, 4 mM sodium orthovanadate, aprotinin (5 mg m/L) and leupeptin (5 mg m/L)] and kept in ice for 30 min, with intermittent vortexing every 5 min. After incubation, the lysate was centrifuged at 13000 rpm for 10 min at 4° C. and the supernatant was collected. The total protein content in the lysate was estimated by Bradford's method, and was then denatured by boiling with 5× loading dye before separating the proteins by SDSpolyacrylamidegel electrophoresis (SDS-PAGE). […]"}, "HeLa cells": {"system": "HeLa cells", "details": "literature ref 12; read-out: IC50, cytotoxicity against HeLa (cervical cancer cells); cited from earlier work"}, "[2]": {"system": "MAPK pathway in HepG2 cells", "experiment": "Western blot of MAPK phosphorylation (p-JNK, p-38, p-42/44)", "type": "cell-based, human", "experimental": "FIGS. 4A-4E are images showing Uttroside B inhibits MAPK and mTOR signaling, some of the crucial survival signals in liver cancer. […] HepG2 cells were treated with Uttroside B for different time intervals (0-240 min) and the whole cell lysate was resolved on a 10% gel and immunoblotted against phospho-ERK1/2 and phospho-Akt antibodies. Taxol was used as a positive control. […] HepG2 cells were treated with Uttroside B at different time intervals and the whole cell lysate was resolved on an 8% gel and immunoblotted against phospho-mTOR (2448) and phospho-mTOR (2481) antibodies.\nWestern blot analysis. Approximately 0.5×10^6 cells were grown on 60 mm culture plates and exposed to drugs as indicated for the desired time. The cells were then scraped out, washed in ice cold 1× PBS and pelleted down at 13000 rpm for 2 min. […]"}, "HepG2 cells": {"system": "HepG2 cells", "experiment": "Autophagy flux assay using PtfLC3 (GFP-RFP-LC3) reporter protein", "type": "cell-based, human", "details": "500 nM, 24 h, transfected HepG2", "from_the_text": "The development of a new vector called ptf-LC3B leading to the expression of a double-tagged GFP-RFP-LC3B protein has helped in the study of autophagy flux and this recombinant protein allows to distinguish between autophagosomes (in yellow) and autophagolysosomes (in red).^33 The pGFP-mRFP-LC3B (ptf-LC3) vector was purchased from Addgene (21074). Briefly, plasmid present in the bacterial pellet was isolated according to manufacturer's instruction (GenElute™ Plasmid Miniprep Kit-Sigma-Aldrich). HepG2 cells were transfected transiently with tandem repeats of GFP-RFP tagged LC3 (ptfLC3) using the Lipofectamine LTX and Plus Reagent Kit (Invitrogen, USA) according to manufacturer's protocol. Briefly, PtfLC3 vector Opti-MEM transfection medium (Solution A) was mixed with Lipofectamine reagent dissolved in Opti-MEM transfection medium (Solution B) and incubated for 45 min at room temperature. […]\nQuantitative analysis of autophagy flux using tandem GFP-RFP LC3 reporter protein. […] FIG. 29 is a bar diagram showing the quantitative analysis of autophagy induced by Uttroside B in HepG2 cells. HepG2 cells were transfected transiently with plasmid encoding GFP-RFP-LC3 as described previously and the punctae observed were counted and plotted as a histogram. The next attempt was to verify and quantitate the autophagic flux induced by Uttroside B using a tandem GFP-RFP LC3 reporter protein. […]"}}, "data": [{"compound": "C[C@H](CC[C@@]1(O)O[C@H]2C[C@H]3[C@@H]4CC[C@H]5C[C@@H](O[C@@H]6O[C@H](CO)[C@H](O[C@@H]7O[C@H](CO)[C@@H](O)[C@H](O[C@@H]8OC[C@@H](O)[C@H](O)[C@H]8O)[C@H]7O[C@@H]7O[C@H](CO)[C@@H](O)[C@H](O)[C@H]7O)[C@H](O)[C@H]6O)CC[C@]5(C)[C@H]4CC[C@]3(C)[C@H]2[C@@H]1C)CO[C@@H]1O[C@H](CO)[C@@H](O)[C@H](O)[C@H]1O", "note": "[Uttroside B]", "values": [{"measurement": "expression of autophagy related proteins, HepG2", "setting": "[1]", "result": "induces up-regulation of all autophagy related proteins in a time dependent manner"}, {"measurement": "IC50", "setting": "HeLa cells", "result": 15.4, "unit": "µM"}, {"measurement": "PMA-induced activation of p-JNK, p-38 and p-42/44", "setting": "[2]", "result": "down-regulated"}, {"measurement": "basal activation of MAPK pathway (p-42/44, p-JNK)", "setting": "[2]", "result": "significantly down-regulated"}, {"measurement": "GFP-RFP-LC3 puncta", "setting": "HepG2 cells", "result": "increase in amount of yellow puncta and red puncta"}]}]}
